Test results reported in US11192894B2, “Cell impermeable coelenterazine analogues” (PROMEGA CORPORATION, priority 2016, dated 2021).

What was measured:
[1] = molecular target: purified NANOLUC® Luciferase (Oplophorus gracilirostris, UniProt Q9GV45, A31E/A60N/A81I/F95D/I117V/K70R/L54V/L99Q/M102K/N193R/P142E/Q151K/Q38R/Q45L/V71I/Y165I); type: biochemical; settings: relative value, furimazine set to 1; purified NanoLuc; initial light output three minutes after substrate addition
Method: Each compound to be screened was dissolved in DMSO (5 mM) and then further diluted to 100 uM in NANO-GLO® Luciferase Assay Buffer. Each diluted substrate was then combined in equal volumes with purified NANOLUC® Luciferase diluted into CO2 independent media+10% FBS. Initial light output for each substrate was measured in a GloMax®-Multi+ luminometer three minutes after substrate addition and then at five minute intervals as a means to determine signal half-life. […] Km was calculated using GraphPad Prism using non linear Michaelis-Menten regression.

NanoLuc:KDR = assay: Cell-based luciferase assay, HEK293 cells expressing NanoLuc:KDR (NanoLuc on the cell surface), ± extracellular inhibitor JRW-0344; settings: 10 μM substrate ± 20 μM inhibitor, FIG. 2A
Method: (§1) FIGS. 2A-2D show extracellular bioluminescent activity of exemplary compounds in HEK293 cells. HEK293 cells were transfected with two different membrane bound NANOLUC® fusions: 1) NanoLuc:KDR, presenting NanoLuc on the outside of the membrane; 2) KDR:NanoLuc, presenting NanoLuc on the inside of the membrane. The cell impermeable NANOLUC® inhibitor JRW-0344 (disclosed in U.S. Ser. No. 15/192,420 to Duellman et al., “THIENOPYRROLE COMPOUNDS AND USES THEREOF,” filed Jun. 24, 2016), was added to the cells to inhibit extracellular bioluminescent activity.
(§2) HEK293 cells were maintained in DMEM containing 100 IU/ml penicillin, 100 μg/ml streptomycin, and 10% fetal calf serum at 37° C. in 5% CO2. Dulbecco's modified eagle medium (DMEM), Opti-MEM, Penicillin/Streptomycin, and Trypsin-EDTA are purchased from Life Technologies (Carlsbad). Fetal calf serum (FBS) is purchased from HyClone (GE Healthcare). Microtiter plates were purchased from Corning.
(§3) HEK293 cells were transiently transfected with two different integral membrane NanoLuc fusion proteins: 1) NanoLuc:KDR, presenting NanoLuc on the cell surface; 2) KDR:NanoLuc, presenting NanoLuc in the interior of the cell. After 24 hours, transfected cells were collected, resuspended in OptiM at 200,000 cell/ml and plated into wells of white, 96-well plates at 100 μL/well. For luminescent measurements, cells were treated with the indicated substrates at a final concentration of 10 μM or 20 μM in the presence or absence of 20 μM cell impermeable NanoLuc inhibitor JRW-0344. The luminescent signal was analyzed 3 minutes after substrate addition using a GLOMAX® Discover multimode detection plate reader (Promega).

KDR:NanoLuc = assay: Cell-based luciferase assay, HEK293 cells expressing KDR:NanoLuc (NanoLuc in the interior of the cell), ± extracellular inhibitor JRW-0344; settings: HEK293 expressing KDR:Nluc; 10 μM substrate ± 20 μM JRW-0344; FIG. 2C
Method: as §1, §2, §3

Sequence of purified NANOLUC® Luciferase (Q9GV45 28-196 with tags or gaps with the stated changes limits assumed): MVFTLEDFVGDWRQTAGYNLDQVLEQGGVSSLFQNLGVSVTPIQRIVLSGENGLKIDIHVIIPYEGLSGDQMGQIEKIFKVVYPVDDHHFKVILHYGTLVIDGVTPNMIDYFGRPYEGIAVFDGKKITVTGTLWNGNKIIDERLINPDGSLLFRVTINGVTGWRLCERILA

Row | Structure (SMILES) | RLU at 100 uM [1] | Difference in RLU's in the presence and absence of the extracellular inhibitor (NanoLuc:KDR) | RLU and effect of the extracellular inhibitor (KDR:NanoLuc)
1 | CC(C)(C)OC(=O)CCCOc1cccc(Cc2nc3c(Cc4ccccc4)[nH]c(-c4ccccc4)cn-3c2=O)c1 [JRW-0714, tert-butyl 4-(3-((8-benzyl-3-oxo-6-phenyl-3,7-dihydroimidazo[1,2-a]pyrazin-2-yl)methyl)phenoxy)butanoate] | 0.0013 |  | 
2 | O=c1c(Cc2cccc(OCCCCCCBr)c2)nc2c(Cc3ccccc3)[nH]c(-c3ccccc3)cn1-2 [JRW-0692, 8-benzyl-2-(3-((6-bromohexyl)oxy)benzyl)-6-phenylimidazo[1,2-a]pyrazin-3(7H)-one] | 0.0025 |  | 
3 | O=C(O)CCCCCOc1cccc(Cc2nc3c(Cc4ccccc4)[nH]c(-c4ccccc4)cn-3c2=O)c1 [JRW-0684, 6-(3-((8-benzyl-3-oxo-6-phenyl-3,7-dihydroimidazo[1,2-a]pyrazin-2-yl)methyl)phenoxy)hexanoic acid] | 0.0057 | Small differences in RLU's | not affected by the extracellular inhibitor
4 | O=c1c(Cc2ccc(OCCCCCCS(=O)(=O)O)c(Cl)c2)nc2c(Cc3ccccc3)[nH]c(-c3cccc(O)c3)cn1-2 [JRW-0805, 6-(4-((8-benzyl-6-(3-hydroxyphenyl)-3-oxo-3,7-dihydroimidazo[1,2-a]pyrazin-2-yl)methyl)-2-chlorophenoxy)hexane-1-sulfonic acid] | 0.17 |  | 
5 | CC(C)(C)OC(=O)CCCCCOc1cccc(Cc2nc3c(Cc4ccccc4)[nH]c(-c4ccccc4)cn-3c2=O)c1 [JRW-0682, tert-butyl 6-(3-((8-benzyl-3-oxo-6-phenyl-3,7-dihydroimidazo[1,2-a]pyrazin-2-yl)methyl)phenoxy)hexanoate] | 0.0024 |  | 
6 | O=c1c(Cc2cccc(OCCCS(=O)(=O)[O-])c2)nc2c(Cc3ccccc3)[nH]c(-c3ccccc3)cn1-2.[Na+] [JRW-0713, sodium 3-(3-((8-benzyl-3-oxo-6-phenyl-3,7-dihydroimidazo[1,2-a]pyrazin-2-yl)methyl)phenoxy)propane-1-sulfonate] | 0.00081 |  | 
7 | O=c1c(Cc2cc(F)c(OCCCCCCS(=O)(=O)[O-])c(F)c2)nc2c(Cc3ccccc3)[nH]c(-c3ccccc3)cn1-2.[Na+] [JRW-0771, sodium 6-(4-((8-benzyl-3-oxo-6-phenyl-3,7-dihydroimidazo[1,2-a]pyrazin-2-yl)methyl)-2,6-difluorophenoxy)hexane-1-sulfonate] | 0.15 |  | 
8 | O=c1c(Cc2ccc(OCCCCCCCCS(=O)(=O)[O-])c(Cl)c2)nc2c(Cc3ccccc3)[nH]c(-c3ccccc3)cn1-2.[Na+] [JRW-0761, sodium 8-(4-((8-benzyl-3-oxo-6-phenyl-3,7-dihydroimidazo[1,2-a]pyrazin-2-yl)methyl)-2-chlorophenoxy)octane-1-sulfonate] | 0.075 |  | 
9 | CC(C)(C)OC(=O)c1cccc(-c2cn3c(=O)c(Cc4ccco4)nc-3c(Cc3ccccc3)[nH]2)c1 [JRW-0755, tert-butyl 3-(8-benzyl-2-(furan-2-ylmethyl)-3-oxo-3,7-dihydroimidazo[1,2-a]pyrazin-6-yl)benzoate] | 0.000043 |  | 
10 | O=C(O)c1ccc(-c2cn3c(=O)c(Cc4ccco4)nc-3c(Cc3ccccc3)[nH]2)cc1 [JRW-0790, 4-(8-benzyl-2-(furan-2-ylmethyl)-3-oxo-3,7-dihydroimidazo[1,2-a]pyrazin-6-yl)benzoic acid] | 0.0029 |  | 
11 | CC(=O)N[C@@H](CC(=O)O)C(=O)N[C@@H](CC(=O)O)C(=O)N[C@@H](CC(=O)O)C(=O)NCCCCCCOc1ccc(Cc2nc3c(Cc4ccccc4)[nH]c(-c4ccccc4)cn-3c2=O)cc1F [JRW-0806, (S)-3-acetamido-4-(((S)-1-(((S)-1-((6-(4-((8-benzyl-3-oxo-6-phenyl-3,7-dihydroimidazo[1,2-a]pyrazin-2-yl)methyl)-2-fluorophenoxy)hexyl)amino)-3-carboxy-1-oxopropan-2-yl)amino)-3-carboxy-1-oxopropan-2-yl)amino)-4-oxobutanoic acid] | 0.021 |  | 
12 | O=C(O)CCCCCCCOc1cccc(Cc2nc3c(Cc4ccccc4)[nH]c(-c4ccccc4)cn-3c2=O)c1 [JRW-0722, 8-(3-((8-benzyl-3-oxo-6-phenyl-3,7-dihydroimidazo[1,2-a]pyrazin-2-yl)methyl)phenoxy)octanoic acid] | 0.023 |  | 
13 | NCCCCCCOc1ccc(Cc2nc3c(Cc4ccccc4)[nH]c(-c4ccccc4)cn-3c2=O)cc1F [JRW-0801, 2-(4-((6-aminohexyl)oxy)-3-fluorobenzyl)-8-benzyl-6-phenylimidazo[1,2-a]pyrazin-3(7H)-one] | 0.0073 |  | 
14 | CC(C)(C)OC(=O)CCCCCOc1ccc(Cc2nc3c(Cc4ccccc4)[nH]c(-c4ccccc4)cn-3c2=O)cc1Cl [JRW-0725, tert-butyl 6-(4-((8-benzyl-3-oxo-6-phenyl-3,7-dihydroimidazo[1,2-a]pyrazin-2-yl)methyl)-2-chlorophenoxy)hexanoate] | 0.013 |  | 
15 | O=C(O)CCCOc1cccc(Cc2nc3c(Cc4ccccc4)[nH]c(-c4ccccc4)cn-3c2=O)c1 [JRW-0716, 4-(3-((8-benzyl-3-oxo-6-phenyl-3,7-dihydroimidazo[1,2-a]pyrazin-2-yl)methyl)phenoxy)butanoic acid] | 0.0022 |  | 
16 | CC(C)(C)OC(=O)CCCCCCCOc1cccc(Cc2nc3c(Cc4ccccc4)[nH]c(-c4ccccc4)cn-3c2=O)c1 [JRW-0719, tert-butyl 8-(3-((8-benzyl-3-oxo-6-phenyl-3,7-dihydroimidazo[1,2-a]pyrazin-2-yl)methyl)phenoxy)octanoate] | 0.0011 |  | 
17 | NCCCCCCOc1cccc(Cc2nc3c(Cc4ccccc4)[nH]c(-c4ccccc4)cn-3c2=O)c1 [TAK-0039, 2-(3-((6-aminohexyl)oxy)benzyl)-8-benzyl-6-phenylimidazo[1,2-a]pyrazin-3(7H)-one] | 0.0077 | Small differences in RLU's | not affected by the extracellular inhibitor
18 | CC(=O)N[C@@H](CC(=O)O)C(=O)N[C@@H](CC(=O)O)C(=O)N[C@@H](CC(=O)O)C(=O)NCCCCCCOc1cccc(Cc2nc3c(Cc4ccccc4)[nH]c(-c4ccccc4)cn-3c2=O)c1 [JRW-0741, (S)-3-acetamido-4-(((S)-1-(((S)-1-((6-(3-((8-benzyl-3-oxo-6-phenyl-3,7-dihydroimidazo[1,2-a]pyrazin-2-yl)methyl)phenoxy)hexyl)amino)-3-carboxy-1-oxopropan-2-yl)amino)-3-carboxy-1-oxopropan-2-yl)amino)-4-oxobutanoic acid] | 0.0057 |  | 
19 | O=c1c(Cc2ccc(OCCCCCCS(=O)(=O)OCC(Cl)(Cl)Cl)c(Cl)c2)nc2c(Cc3ccccc3)[nH]c(-c3ccccc3)cn1-2 [JRW-0665, 2,2,2-trichloroethyl 6-(4-((8-benzyl-3-oxo-6-phenyl-3,7-dihydroimidazo[1,2-a]pyrazin-2-yl)methyl)-2-chlorophenoxy)hexane-1-sulfonate] | 0.0055 |  | 
20 | O=c1c(Cc2ccc(OCCCCCCCCCCS(=O)(=O)[O-])c(Cl)c2)nc2c(Cc3ccccc3)[nH]c(-c3ccccc3)cn1-2.[Na+] [JRW-0765, sodium 10-(4-((8-benzyl-3-oxo-6-phenyl-3,7-dihydroimidazo[1,2-a]pyrazin-2-yl)methyl)-2-chlorophenoxy)decane-1-sulfonate] | 0.011 |  | 
21 | O=c1c(Cc2ccc(Cl)c(OCCCCCCS(=O)(=O)[O-])c2)nc2c(Cc3ccccc3)[nH]c(-c3ccccc3)cn1-2.[Na+] [JRW-0766, sodium 6-(5-((8-benzyl-3-oxo-6-phenyl-3,7-dihydroimidazo[1,2-a]pyrazin-2-yl)methyl)-2-chlorophenoxy)hexane-1-sulfonate] | 0.015 |  | 
